Source: the supplement of paper PMC10307832

Legend:
Assay in all cases: relative viability (nuclei count vs DMSO), 5 days (fraction); higher = more cells survive
[1] = compound: COc1cc2nc(N3CCCN(C)CC3)nc(NC3CCN(Cc4ccccc4)CC3)c2cc1OC + Cc1nc(Nc2ncc(C(=O)Nc3c(C)cccc3Cl)s2)cc(N2CCN(CCO)CC2)n1 [Dasatinib] (partner 0.075 µM)
Method in brief: (§1)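 After 5 days of treatment, lung cancer cells in 1536-well plates were fixed and stained in a single step (final 0.05% Triton X-100, 1% formaldehyde, 1 ug/ml Hoechst) and their nuclei counted on 4× images. Treatment had been applied by pin tool the day after seeding as one drug alone or as a fixed anchor-drug dose with five library-drug doses (not always all listed) in √10 steps. Relative viability is the nuclei count of treated wells divided by that of vehicle wells, and values are medians of duplicate plates.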

[2] = compound: Cc1cc([C@@H](C)Nc2ccccc2C(=O)O)c2nc(N3CCOCC3)cc(=O)n2c1 [AZD6482] + COc1cccc2cc(-c3nc([C@H]4CC[C@H](C(=O)O)CC4)n4ncnc(N)c34)[nH]c12 [OSI-027] (partner 0.5 µM)
Method in brief: as §1

[3] = compound: Cc1cc([C@@H](C)Nc2ccccc2C(=O)O)c2nc(N3CCOCC3)cc(=O)n2c1 [AZD6482] + Cc1nc(NC(=O)N2CCC[C@H]2C(N)=O)sc1-c1ccnc(C(C)(C)C(F)(F)F)c1 [Alpelisib] (partner 2 µM)
Method in brief: as §1

[4] = compound: Cc1cc([C@@H](C)Nc2ccccc2C(=O)O)c2nc(N3CCOCC3)cc(=O)n2c1 [AZD6482] + O=C(CCCCCCC(=O)Nc1ccccc1)NO [Vorinostat] (partner 1 µM)
Method in brief: as §1

Row | Cell Line | relative viability ([1]; first compound 0.2 µM) | relative viability ([1]; first compound 0.6325 µM) | relative viability ([1]; first compound 2 µM) | relative viability ([1]; first compound 6.325 µM) | relative viability ([2]; first compound 0.08 µM) | relative viability ([2]; first compound 0.253 µM) | relative viability ([2]; first compound 0.8 µM) | relative viability ([2]; first compound 2.53 µM) | relative viability ([2]; first compound 8 µM) | relative viability ([3]; first compound 0.08 µM) | relative viability ([3]; first compound 0.253 µM) | relative viability ([3]; first compound 0.8 µM) | relative viability ([3]; first compound 2.53 µM) | relative viability ([3]; first compound 8 µM) | relative viability ([4]; first compound 0.08 µM) | relative viability ([4]; first compound 0.253 µM) | relative viability ([4]; first compound 0.8 µM) | relative viability ([4]; first compound 2.53 µM) | relative viability ([4]; first compound 8 µM)
1 | NCI-H460 | 0.532 | 0.534 | 0.415 | 0.43 | 0.631 | 0.589 | 0.543 | 0.326 | 0.292 | 0.206 | 0.352 | 0.263 | 0.13 | 0.18 | 0.599 | 0.797 | 0.895 | 0.344 | 0.594
2 | EKVX | 0.571 | 0.52 | 0.474 | 0.526 | 0.624 | 0.62 | 0.684 | 0.387 | 0.434 | 0.516 | 0.46 | 0.591 | 0.336 | 0.581 | 0.537 | 0.662 | 0.578 | 0.485 | 0.361
3 | NCI-H358 | 0.163 | 0.205 | 0.146 | 0.171 | 0.711 | 0.557 | 0.662 | 0.257 | 0.312 | 0.657 | 0.978 | 0.705 | 0.39 | 0.833 | 0.494 | 0.648 | 0.672 | 0.347 | 0.56
4 | EPLC-272H | 0.384 | 0.411 | 0.453 | 0.37 | 0.29 | 0.235 | 0.345 | 0.214 | 0.255 | 0.593 |  | 0.554 | 0.436 | 0.577 | 0.466 | 0.397 | 0.474 | 0.256 | 0.252
5 | NCI-H1395 | 0.459 | 0.425 | 0.384 | 0.357 | 0.519 | 0.433 | 0.553 | 0.393 | 0.44 | 0.696 | 0.573 | 0.732 | 0.5 | 0.587 | 0.584 | 0.402 | 0.559 | 0.385 | 0.47
6 | NCI-H2126 | 0.583 | 0.678 | 0.597 | 0.502 | 0.647 | 0.652 | 0.704 | 0.403 | 0.485 | 0.608 | 0.569 | 0.606 | 0.476 | 0.559 | 0.728 | 0.703 | 0.577 | 0.389 | 0.432
7 | LXF-289 | 0.263 | 0.212 | 0.252 | 0.213 | 0.825 | 0.643 | 0.772 | 0.559 | 0.615 | 0.946 | 1.01 | 0.966 | 0.798 | 0.706 | 0.814 | 0.741 | 0.87 | 0.729 | 0.752
8 | NCI-H2009 | 0.308 | 0.324 | 0.493 | 0.296 | 0.56 | 0.601 | 0.555 | 0.224 | 0.388 | 0.936 | 1.15 | 1.04 | 0.484 | 0.985 | 0.583 | 0.775 | 0.665 | 0.501 | 0.573
9 | NCI-H2405 | 0.213 | 0.214 | 0.2 | 0.202 | 0.46 |  | 0.595 | 0.369 | 0.336 | 0.354 |  | 0.603 | 0.384 | 0.556 | 0.762 | 0.9 | 1.03 | 0.644 | 0.501
10 | NCI-H1755 | 0.436 | 0.395 | 0.416 | 0.423 | 0.605 | 0.595 | 0.662 | 0.486 | 0.494 | 0.695 | 0.719 | 0.547 | 0.336 | 0.435 | 0.691 | 0.638 | 0.742 | 0.495 | 0.566
11 | HCC-78 | 0.486 | 0.557 | 0.362 | 0.421 | 0.316 | 0.315 | 0.32 | 0.265 | 0.303 | 0.222 | 0.179 | 0.212 | 0.159 | 0.194 | 0.499 | 0.389 | 0.395 | 0.298 | 0.341
12 | LOU-NH91 | 0.525 | 0.686 | 0.439 | 0.59 | 0.606 | 0.702 | 0.66 | 0.455 | 0.579 | 0.547 | 0.676 | 0.647 | 0.525 | 0.639 | 0.852 | 0.92 | 0.834 | 0.602 | 0.712
